Measurements reported in ChEMBL document CHEMBL3600372, “Scapairrins A-Q, Labdane-Type Diterpenoids from the Chinese Liverwort Scapania irrigua and Their Cytotoxic Activity” (J Nat Prod, 2015).

Experiments:
A549 = experiment: Cytotoxicity against human A549 cells after 24 hrs by MTT assay; assay type: functional, cell-based; conditions: A549, 24 h
MDA-MB-231 = experiment: Cytotoxicity against human MDA-MB-231 cells after 24 hrs by MTT assay; assay type: functional, cell-based; conditions: MDA-MB-231, 24 h
A2780 = experiment: Cytotoxicity against human A2780 cells after 24 hrs by MTT assay; assay type: functional, cell-based; conditions: A2780, 24 h
HeLa = experiment: Cytotoxicity against human HeLa cells after 24 hrs by MTT assay; assay type: functional, cell-based
HT-29 = experiment: Cytotoxicity against human HT-29 cells after 24 hrs by MTT assay; assay type: functional, cell-based; conditions: HT-29, 24 h
HUVEC = experiment: Cytotoxicity against human HUVEC after 24 hrs by MTT assay; assay type: cell-based

`C=C([C@H](C)O)[C@@H]1C[C@H]2[C@@](C)(CC[C@@]3(O)C(C)(C)CCC[C@]23C)O1` showed an IC50 (A549) of over 10 µM, an IC50 (MDA-MB-231) of over 10 µM and an IC50 (A2780) of over 10 µM. For the same compound, the IC50 (HeLa) was over 10 µM, the IC50 (HT-29) was over 10 µM and the IC50 (HUVEC) was over 10 µM.
`C=C([C@@H]1C[C@H]2[C@@](C)(CC[C@@]3(O)C(C)(C)CCC[C@]23C)O1)[C@@H](C)O` gave an IC50 (A549) of over 10 µM, an IC50 (MDA-MB-231) of over 10 µM and an IC50 (A2780) of over 10 µM. For the same compound, the IC50 (HeLa) was over 10 µM, the IC50 (HT-29) was over 10 µM and the IC50 (HUVEC) was over 10 µM.
With `C=C([C@H](C)O)[C@@H]1C[C@H]2[C@@](C)(CC[C@@]3(O)C(C)(C)CCC(=O)[C@]23C)O1` the IC50 (A549) was over 10 µM, the IC50 (MDA-MB-231) was over 10 µM and the IC50 (A2780) was over 10 µM. The IC50 (HeLa) was over 10 µM, the IC50 (HT-29) was over 10 µM and the IC50 (HUVEC) was over 10 µM.
`C=C([C@@H]1C[C@H]2[C@@](C)(CC[C@@]3(O)C(C)(C)CCC(=O)[C@]23C)O1)[C@@H](C)O` showed an IC50 (A549) of over 10 µM, an IC50 (MDA-MB-231) of over 10 µM and an IC50 (A2780) of over 10 µM. The IC50 (HeLa) was over 10 µM, the IC50 (HT-29) was over 10 µM and the IC50 (HUVEC) was over 10 µM.
`C=C([C@H](C)O)[C@@H]1C[C@@H]2[C@@]3(C)[C@@H](O)CCC(C)(C)[C@]3(O)CC[C@@]2(C)O1` was tested, and the IC50 (A549) was over 10 µM, the IC50 (MDA-MB-231) was over 10 µM and the IC50 (A2780) was over 10 µM. It also gave an IC50 (HeLa) of over 10 µM, an IC50 (HT-29) of over 10 µM and an IC50 (HUVEC) of over 10 µM.
For `C=C([C@@H]1C[C@@H]2[C@@]3(C)[C@@H](O)CCC(C)(C)[C@]3(O)CC[C@@]2(C)O1)[C@@H](C)O`, the IC50 (A549) was over 10 µM, the IC50 (MDA-MB-231) was over 10 µM and the IC50 (A2780) was over 10 µM. It also gave an IC50 (HeLa) of over 10 µM, an IC50 (HT-29) of over 10 µM and an IC50 (HUVEC) of over 10 µM.
`C=C(C(C)=O)[C@@H]1C[C@@H]2[C@@]3(C)[C@@H](O)CCC(C)(C)[C@]3(O)CC[C@@]2(C)O1` was tested, and the IC50 (A549) was over 10 µM, the IC50 (MDA-MB-231) was 4.1 µM and the IC50 (A2780) was 5.3 µM. The IC50 (HeLa) was 6.6 µM, the IC50 (HT-29) was 5.8 µM and the IC50 (HUVEC) was over 10 µM.
For `C=C(C(C)=O)[C@H]1C[C@@H]2[C@@]3(C)[C@@H](O)CCC(C)(C)[C@]3(O)CC[C@@]2(C)O1`, the IC50 (A549) was over 10 µM, the IC50 (MDA-MB-231) was 5.4 µM and the IC50 (A2780) was 4.4 µM. The IC50 (HeLa) was 5.5 µM, the IC50 (HT-29) was 7 µM and the IC50 (HUVEC) was over 10 µM.
Work on `C=C(C(C)=O)[C@@H]1C[C@H]2[C@@](C)(CC[C@@]3(O)C(C)(C)CCC(=O)[C@]23C)O1` yielded an IC50 (A549) of over 10 µM, an IC50 (MDA-MB-231) of 5 µM and an IC50 (A2780) of 7.8 µM. It also gave an IC50 (HeLa) of 8.7 µM, an IC50 (HT-29) of 6.8 µM and an IC50 (HUVEC) of over 10 µM.
Compound `C=C(C(C)=O)[C@@H]1C[C@H]2[C@@](C)(CC[C@@]3(O)C(C)(C)CCC[C@]23C)O1` has an IC50 (A549) of over 10 µM, an IC50 (MDA-MB-231) of 4.2 µM and an IC50 (A2780) of 8.6 µM. It also gave an IC50 (HeLa) of 8.3 µM, an IC50 (HT-29) of 5.2 µM and an IC50 (HUVEC) of 3 µM.
Compound `C/C=C(\C)[C@@H]1C[C@H]2[C@@](C)(CC[C@@]3(O)C(C)(C)CCC[C@]23C)O1` has an IC50 (A549) of over 10 µM, an IC50 (MDA-MB-231) of over 10 µM and an IC50 (A2780) of over 10 µM. For the same compound, the IC50 (HeLa) was over 10 µM, the IC50 (HT-29) was over 10 µM and the IC50 (HUVEC) was over 10 µM.
`C/C=C(\C)[C@@H]1C[C@H]2[C@@](C)(CC[C@@]3(O)C(C)(C)CCC(=O)[C@]23C)O1` showed an IC50 (A549) of over 10 µM, an IC50 (MDA-MB-231) of over 10 µM and an IC50 (A2780) of over 10 µM. It also gave an IC50 (HeLa) of over 10 µM, an IC50 (HT-29) of over 10 µM and an IC50 (HUVEC) of over 10 µM.
Work on `C[C@H]1O[C@]1(C)C(=O)C[C@@H]1[C@@]2(C)[C@@H](O)CCC(C)(C)[C@]2(O)CC[C@@]1(C)O` yielded an IC50 (A549) of over 10 µM, an IC50 (MDA-MB-231) of over 10 µM and an IC50 (A2780) of over 10 µM. It also gave an IC50 (HeLa) of over 10 µM, an IC50 (HT-29) of over 10 µM and an IC50 (HUVEC) of over 10 µM.
`C[C@@H]1O[C@@]1(C)C(=O)C[C@@H]1[C@@]2(C)[C@@H](O)CCC(C)(C)[C@]2(O)CC[C@@]1(C)O` was tested, and the IC50 (A549) was over 10 µM, the IC50 (MDA-MB-231) was over 10 µM and the IC50 (A2780) was over 10 µM. The IC50 (HeLa) was over 10 µM, the IC50 (HT-29) was over 10 µM and the IC50 (HUVEC) was over 10 µM.
`C[C@@H]1O[C@@]1(C)C(=O)C[C@H]1[C@](C)(O)CC[C@@]2(O)C(C)(C)CCC[C@]12C` gave an IC50 (A549) of over 10 µM, an IC50 (MDA-MB-231) of over 10 µM and an IC50 (A2780) of over 10 µM. For the same compound, the IC50 (HeLa) was over 10 µM, the IC50 (HT-29) was over 10 µM and the IC50 (HUVEC) was over 10 µM.
For `C[C@H]1O[C@]1(C)C(=O)C[C@H]1[C@](C)(O)CC[C@@]2(O)C(C)(C)CCC[C@]12C`, the IC50 (A549) was over 10 µM, the IC50 (MDA-MB-231) was over 10 µM and the IC50 (A2780) was over 10 µM. For the same compound, the IC50 (HeLa) was over 10 µM, the IC50 (HT-29) was over 10 µM and the IC50 (HUVEC) was over 10 µM.
`CC1(C)CCC[C@]2(C)C3=CC(=O)O[C@]3(C)CC[C@@]12O` showed an IC50 (A549) of over 10 µM, an IC50 (MDA-MB-231) of over 10 µM and an IC50 (A2780) of over 10 µM. The IC50 (HeLa) was over 10 µM, the IC50 (HT-29) was over 10 µM and the IC50 (HUVEC) was over 10 µM.
Compound `C/C=C(\C)C(=O)C[C@]1(O)[C@@]2(C)CCCC(C)(C)[C@]2(O)CC[C@@]1(C)O` has an IC50 (A549) of over 10 µM, an IC50 (MDA-MB-231) of over 10 µM and an IC50 (A2780) of over 10 µM. It also gave an IC50 (HeLa) of over 10 µM, an IC50 (HT-29) of over 10 µM and an IC50 (HUVEC) of over 10 µM.
`C/C=C(\C)C(=O)C[C@@H]1[C@@]2(C)[C@@H](O)CCC(C)(C)[C@]2(O)CC[C@@]1(C)O` gave an IC50 (A549) of over 10 µM, an IC50 (MDA-MB-231) of over 10 µM and an IC50 (A2780) of over 10 µM. The IC50 (HeLa) was over 10 µM, the IC50 (HT-29) was over 10 µM and the IC50 (HUVEC) was over 10 µM.
For `C/C=C(\C)C(=O)C[C@H]1[C@](C)(O)CC[C@@]2(O)C(C)(C)CCC[C@]12C`, the IC50 (A549) was over 10 µM, the IC50 (MDA-MB-231) was over 10 µM and the IC50 (A2780) was over 10 µM. It also gave an IC50 (HeLa) of over 10 µM, an IC50 (HT-29) of over 10 µM and an IC50 (HUVEC) of over 10 µM.
`COc1cccc2c1C(=O)c1c(O)c3c(c(O)c1C2=O)C[C@@](O)(C(=O)CO)C[C@@H]3O[C@H]1C[C@H](N)[C@H](O)[C@H](C)O1` [DOXORUBICIN] was tested, and the IC50 (MDA-MB-231) was 0.6 µM, the IC50 (HeLa) was 5.2 µM and the IC50 (HT-29) was 1.7 µM. The IC50 (HUVEC) was 6.3 µM.
